As a reminder, the IC50 is the concentration at which inhibition is half-maximal. Lower therefore signals greater potency in that assay.

The target in this assay is T1, Androgen Receptor (AR) in the LNCaP prostate carcinoma cell line (Homo sapiens, UniProt P10275, T878A).
T1 construct: cell based immuno-fluorescence assay using the LNCaP prostate epithelial cell line; host or cells: LNCaP clone FGC
T1 sequence (P10275 1-920 T878A): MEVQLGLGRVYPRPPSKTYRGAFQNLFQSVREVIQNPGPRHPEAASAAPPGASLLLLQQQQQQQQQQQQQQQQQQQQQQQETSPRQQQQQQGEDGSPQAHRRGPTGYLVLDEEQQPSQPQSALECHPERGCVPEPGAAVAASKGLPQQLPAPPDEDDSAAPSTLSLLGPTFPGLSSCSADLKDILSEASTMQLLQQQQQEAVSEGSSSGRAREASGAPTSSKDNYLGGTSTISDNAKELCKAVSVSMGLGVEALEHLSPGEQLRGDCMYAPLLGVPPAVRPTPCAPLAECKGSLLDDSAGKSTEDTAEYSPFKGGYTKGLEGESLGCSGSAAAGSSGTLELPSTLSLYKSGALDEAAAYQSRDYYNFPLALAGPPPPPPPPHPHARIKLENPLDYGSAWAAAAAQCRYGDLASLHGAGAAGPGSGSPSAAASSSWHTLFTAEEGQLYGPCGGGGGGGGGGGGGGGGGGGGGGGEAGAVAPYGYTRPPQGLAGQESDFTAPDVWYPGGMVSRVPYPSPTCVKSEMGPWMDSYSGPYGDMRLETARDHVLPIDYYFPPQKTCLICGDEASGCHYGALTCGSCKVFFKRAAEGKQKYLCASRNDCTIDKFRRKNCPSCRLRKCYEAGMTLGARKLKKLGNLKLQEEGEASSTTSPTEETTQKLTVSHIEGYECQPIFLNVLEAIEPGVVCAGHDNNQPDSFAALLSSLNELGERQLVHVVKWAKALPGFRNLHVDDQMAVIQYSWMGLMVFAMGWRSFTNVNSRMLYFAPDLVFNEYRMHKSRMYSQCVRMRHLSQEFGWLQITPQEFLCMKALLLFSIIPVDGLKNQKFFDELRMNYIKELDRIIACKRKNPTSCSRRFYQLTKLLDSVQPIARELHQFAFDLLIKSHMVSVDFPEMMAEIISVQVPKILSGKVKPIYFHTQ
In words: LNCaP Androgen Receptor Down-Regulation Cell Assay (immunofluorescence end point). Format: cell-based. The following applies: LNCaP cells, compound incubation 20-22 hours, concentration giving 50% reduction of the AR signal. The protocol: The ability of compounds to reduce Androgen Receptor (AR) numbers was assessed in a cell based immuno-fluorescence assay using the LNCaP prostate epithelial cell line.
This immunofluorescence end point assay measures the ability of a test compound to down-regulate and reduce measured levels of the AR in the LNCaP prostate carcinoma cell line (LNCaP clone FGC (CRL-1740) obtained from the American Type Culture Collection (ATCC)).
LNCaP cells were cultured in Growth Medium (phenol red free Roswell Park Memorial Institute (RPMI) 1640 (Invitrogen Code no. 11835-063) containing 2 mM L-Glutamine (Invitrogen Code no. 25030-024) and 1% (v/v) Penicillin/Streptomycin (10000 units/ml Penicillin and 10000 μg/ml of Streptomycin utilising penicillin G (sodium salt) and streptomycin sulphate: prepared in normal saline, Invitrogen Code no. 15140122) and 10% (v/v) foetal bovine serum (FBS)) in a 5% CO2 air incubator at 37° C. Cells for assay were harvested from T175 stock flasks by washing once in PBS (phosphate buffered saline, pH 7.4) (Invitrogen Code no. 14190-094) and harvested using 5 mls of 1× Trypsin/ethylaminediaminetetraacetic acid (EDTA) (10× Trypsin-EDTA, 5.0 g/L Trypsin, 2.0 g/L of EDTA.4Na and 8.5 g/L of NaCl, without Phenol Red, Invitrogen Code no. 15400-054) diluted in PBS solution. A 5 ml volume of Growth Medium was added to each flask (as above except that 5% (v/v) charcoal stripped FBS (HyClone Code no. SH30068.03) was included instead of 10% (v/v) FBS). Cells were syringed at least twice using a sterile 18 G×1.5″ (1.2×40 mm) broad gauge needle and cell density was measured using a haemocytometer. Cells were further diluted in Growth Medium plus 5% (v/v) charcoal stripped FBS and seeded at a density of 6.5×10^3 cells per well (in 90 ul) into transparent, black, tissue culture treated 96 well plates (Packard, No. 6005182).
Test data reported herein was generated using two different compounds preparation and dosing methods. In method (1) a 10 mM compound stock solution in 100% (v/v) DMSO was serially diluted in 4-fold steps in 100% (v/v) DMSO using a Thermo Scientific Matrix SerialMate. The diluted compounds were then further diluted 1 in 30 in assay media using a Thermo Scientific Matrix PlateMate and a 10 μl aliquot of this dilution was dosed to cells manually using a multi-channel pipette. In method (2) starting with a 10 mM compound stock solution, the Labcyte Echo 550 was used to generate a compound concentration response set diluted in 30 μl of assay media. The Echo 550 is a liquid handler that uses acoustic technology to perform direct microplate-to-microplate transfers of DMSO compound solutions. The system can be programmed to transfer volumes as low as 2.5 nL in multiple increments between microplates and in so doing generates a serial dilution of compound which is then back-filled to normalise the DMSO concentration across the dilution range. A 10 μl volume of diluted compound is then dosed to cells using a Thermo Scientific Matrix PlateMate.
Plates were incubated overnight at 37° C., 5% CO2. Wells were then dosed with compound prepared by one of the 2 methods above and further incubated for 20-22 hours at 37° C., 5% CO2. Plates were fixed by the addition of 20 μl of 10% (v/v) formaldehyde solution (in PBS) to each well (final formaldehyde conc.=1.67% (v/v)) and left at room temperature for 10 mins. This fixative solution was removed and cells were washed with 250 μl of PBS/0.05% (v/v) Tween 20 (PBST) using an automated plate washer. This process was then repeated twice more.
Immunostaining was performed at room temperature. Cells were permeabilised by the addition of 35 μl of PBS containing 0.5% Tween 20 and incubated for 1 hour at room temperature. Permeabilisation solution was removed and cells were washed with 250 μl of PBST using an automated plate washer. This process was then repeated twice more. […]
In the case of `FC(F)(F)c1nnc2n1N=C(N1CCC(c3c[nH]c4ncccc34)CC1)CC2` [Example 18, 6-[4-(1H-pyrrolo[2,3-b]pyridin-3-yl)piperidin-1-yl]-3-(trifluoromethyl)-7,8-dihydro[1,2,4]triazolo[4,3-b]pyridazine], the IC50 came out at 3.2 µM.
As for `COCCN(C)C(=O)COc1ccc(C2CCN(C3=Nn4c(nnc4C(F)(F)F)CC3)CC2)cc1` [Example 19, N-(2-methoxyethyl)-N-methyl-2-(4-{1-[3-(trifluoromethyl)-7,8-dihydro[1,2,4]triazolo[4,3-b]pyridazin-6-yl]piperidin-4-yl}phenoxy)acetamide], the figure is 2.9 µM.
As for `CN(C)C(=O)COc1ccc(C2CCN(C3=Nn4c(nnc4C(F)(F)F)CC3)CC2)cc1` [Example 20, N,N-dimethyl-2-(4-{1-[3-(trifluoromethyl)-7,8-dihydro[1,2,4]triazolo[4,3-b]pyridazin-6-yl]piperidin-4-yl}phenoxy)acetamide], the figure is 4.1 µM; as for `CN(CCO)C(=O)COc1ccc(C2CCN(C3=Nn4c(nnc4C(F)(F)F)CC3)CC2)cc1` [Example 21, N-(2-hydroxyethyl)-N-methyl-2-(4-{1-[3-(trifluoromethyl)-7,8-dihydro[1,2,4]triazolo[4,3-b]pyridazin-6-yl]piperidin-4-yl}phenoxy)acetamide], 26 µM.
The figure for `CCCCN(C)C(=O)COc1ccc(C2CCN(C3=Nn4c(nnc4C(F)(F)F)CC3)CC2)cc1` [Example 22, N-butyl-N-methyl-2-(4-{1-[3-(trifluoromethyl)-7,8-dihydro[1,2,4]triazolo[4,3-b]pyridazin-6-yl]piperidin-4-yl}phenoxy)acetamide] is 0.46 µM.
The compound `COCCN(C)C(=O)CCCOc1ccc(C2CCN(C3=Nn4c(nnc4C(F)(F)F)CC3)CC2)cc1` [Example 23, N-(2-methoxyethyl)-N-methyl-4-(4-{1-[3-(trifluoromethyl)-7,8-dihydro[1,2,4]triazolo[4,3-b]pyridazin-6-yl]piperidin-4-yl}phenoxy)butanamide] showed an IC50 of 1.3 µM.
As for `CN(CCO)C(=O)CCCOc1ccc(C2CCN(C3=Nn4c(nnc4C(F)(F)F)CC3)CC2)cc1` [Example 24], the figure is 2.5 µM; as for `CCCCC(=O)N1CCN(CCOc2ccc(C3CCN(C4=Nn5c(nnc5C(F)(F)F)CC4)CC3)cc2)CC1` [Example 25, 6-(4-{4-[2-(4-pentanoylpiperazin-1-yl)ethoxy]phenyl}piperidin-1-yl)-3-(trifluoromethyl)-7,8-dihydro[1,2,4]triazolo[4,3-b]pyridazine], 0.93 µM; as for `CS(=O)(=O)N1CCN(CCOc2ccc(C3CCN(C4=Nn5c(nnc5C(F)(F)F)CC4)CC3)cc2)CC1` [Example 26, 6-[4-(4-{2-[4-(methylsulfonyl)piperazin-1-yl]ethoxy}phenyl)piperidin-1-yl]-3-(trifluoromethyl)-7,8-dihydro[1,2,4]triazolo[4,3-b]pyridazine], 1.5 µM.
The figure for `CCCCC(=O)N1CCN(CCCOc2ccc(C3CCN(C4=Nn5c(nnc5C(F)(F)F)CC4)CC3)cc2)CC1` [Example 27, 6-(4-{4-[3-(4-pentanoylpiperazin-1-yl)propoxy]phenyl}piperidin-1-yl)-3-(trifluoromethyl)-7,8-dihydro[1,2,4]triazolo[4,3-b]pyridazine] is 0.67 µM; for `CS(=O)(=O)N1CCN(CCCOc2ccc(C3CCN(C4=Nn5c(nnc5C(F)(F)F)CC4)CC3)cc2)CC1` [Example 28, 6-[4-(4-{3-[4-(methylsulfonyl)piperazin-1-yl]propoxy}phenyl)piperidin-1-yl]-3-(trifluoromethyl)-7,8-dihydro[1,2,4]triazolo[4,3-b]pyridazine] it is 1 µM; for `CC(=O)N1CCN(CCCOc2ccc(N3CCN(C4=Nn5c(nnc5C(F)(F)F)CC4)CC3)cc2)CC1` [Example 29, 6-(4-{4-[3-(4-acetylpiperazin-1-yl)propoxy]phenyl}piperazin-1-yl)-3-(trifluoromethyl)-7,8-dihydro[1,2,4]triazolo[4,3-b]pyridazine] it is 10 µM.
As for `CCCCC(=O)N1CCN(CCCOc2ccc(N3CCN(C4=Nn5c(nnc5C(F)(F)F)CC4)CC3)cc2)CC1` [Example 30, 6-(4-{4-[3-(4-pentanoylpiperazin-1-yl)propoxy]phenyl}piperazin-1-yl)-3-(trifluoromethyl)-7,8-dihydro[1,2,4]triazolo[4,3-b]pyridazine], the figure is 6.7 µM; as for `CS(=O)(=O)N1CCN(CCCOc2ccc(N3CCN(C4=Nn5c(nnc5C(F)(F)F)CC4)CC3)cc2)CC1` [Example 31], 18 µM.
Take `CC(=O)N1CCN(CCOc2ccc(N3CCN(C4=Nn5c(nnc5C(F)(F)F)CC4)CC3)cc2)CC1` [Example 32, 6-(4-{4-[2-(4-acetylpiperazin-1-yl)ethoxy]phenyl}piperazin-1-yl)-3-(trifluoromethyl)-7,8-dihydro[1,2,4]triazolo[4,3-b]pyridazine]: half-maximal inhibition (IC50) required 20 µM.
As for `CCCCC(=O)N1CCN(CCOc2ccc(N3CCN(C4=Nn5c(nnc5C(F)(F)F)CC4)CC3)cc2)CC1` [Example 33, 6-(4-{4-[2-(4-pentanoylpiperazin-1-yl)ethoxy]phenyl}piperazin-1-yl)-3-(trifluoromethyl)-7,8-dihydro[1,2,4]triazolo[4,3-b]pyridazine], the figure is 7.8 µM.
As for `CS(=O)(=O)N1CCN(CCOc2ccc(N3CCN(C4=Nn5c(nnc5C(F)(F)F)CC4)CC3)cc2)CC1` [Example 34, 6-[4-(4-{2-[4-(methylsulfonyl)piperazin-1-yl]ethoxy}phenyl)piperazin-1-yl]-3-(trifluoromethyl)-7,8-dihydro[1,2,4]triazolo[4,3-b]pyridazine], the figure is 23 µM.
The figure for `FC(F)(F)CCCOc1ccc(C2CCN(C3=Nn4c(nnc4C(F)(F)F)CC3)CC2)cc1` [Example 35, 6-{4-[4-(4,4,4-trifluorobutoxy)phenyl]piperidin-1-yl}-3-(trifluoromethyl)-7,8-dihydro[1,2,4]triazolo[4,3-b]pyridazine] is 2.3 µM.

The values above are taken from patent US8258140B2 (Astrazeneca AB, priority 2009, dated 2012).
